Assay type in all cases: cell-based
The subject of assay [1] is Recombinant respiratory syncytial virus expressing the firefly luciferase protein (RSV-Fluc). As to the kind of experiment: microbe, parasite or virus in culture. To be noted: Table 4.
In assay [2] the test system is Respiratory syncytial virus (RSV) strain A2. In words: Hep-2 RSV2 384-well assay (EC50-HEP2-384). To be noted: HEp-2 cells, RSV A2, MOI=4, 4 days.
In another assay the test system is SARS-CoV-2. In words: SARS-CoV-2 antiviral assay (A549-hACE2, Nano luciferase). The following applies: A549-hACE2 cells, SARS-CoV2-Nano, MOI 0.025, 48 h, Table 4, read-out: EC50 SARS CoV2.
Assay [3] relates to Respiratory syncytial virus (RSV) strain A2. As to the kind of experiment: RSV antiviral assay (HEp-2, 96 well). To be noted: read-out: EC50 RSV HEP2 96; HEp-2 cells, RSV A2, MOI=4, 4 days, 96 well; Table 3.
Assay [4] relates to Respiratory syncytial virus recombinant with luciferase (RSV-Luc5). As to the kind of experiment: microbe, parasite or virus in culture. The following applies: Table 3.
Where [5] appears, read: read-out: EC50 RSVFluc NHBE 96, NHBE cells, RSV-Fluc, MOI of 0.1, three days, 96 well.
The mark [6] stands for this setting: human respiratory syncytial virus, NHBE, 72 h, read-out: EC50 RSVFluc NHBE 96, NHBE cells, RSV-Fluc, MOI of 0.1, three days, 96 well.
Setting [7] is: human respiratory syncytial virus, HEp-2, 96 h, Table 3.
[8] abbreviates: Severe acute respiratory syndrome coronavirus 2, 48 h.
Setting [9] is: human respiratory syncytial virus, HEp-2, 72 h, read-out: EC50 RSVFluc-Hep2 384, HEp-2 cells, RSV-Luc5, MOI=0.5, 3 days, 384 well.
[10] abbreviates: read-out: EC50 RSVFluc-Hep2 384, HEp-2 cells, RSV-Luc5, MOI=0.5, 3 days, 384 well.

Where two headings read alike, the source gives them in different places.

Regarding `CCOC(=O)[C@H](C)NP(=O)(OC[C@H]1O[C@@](C#N)(c2ccc3c(N)ncnn23)[C@H](OC(=O)C(C)C)[C@@H]1OC(=O)C(C)C)Oc1ccc(C(C)(C)C)cc1` (single isomer, unassigned) [Example 18b], the EC50 (usually the concentration at which the effect is half-maximal) in assay [1] (setting [5]) came out at 15.1 nM; in assay [2] (Table 1) it was 75 nM; in the assay on SARS-CoV-2 it was 332 nM.
Regarding `CC(C)C(=O)O[C@H]1[C@@H](OC(=O)C(C)C)[C@](C#N)(c2ccc3c(N)ncnn23)O[C@@H]1COP(=O)(N[C@@H](C)C(=O)OC1CCC1)Oc1ccccc1` (single isomer, unassigned) [Example 21a], the EC50 in assay [1] (setting [5]) stood at 37.4 nM; in assay [2] (Table 1), 92 nM; in the assay with SARS-CoV-2, 125 nM.
As to `CC(C)C(=O)O[C@H]1[C@@H](OC(=O)C(C)C)[C@](C#N)(c2ccc3c(N)ncnn23)O[C@@H]1COP(=O)(N[C@@H](C)C(=O)OC1CCC1)Oc1ccccc1` (single isomer, unassigned) [Example 21b], the EC50 in assay [1] (setting [5]) was determined as 33.1 nM; in assay [2] (Table 1) it was 34.7 nM; in the assay with SARS-CoV-2 it was 191 nM.
For `C[C@H](NP(=O)(OC[C@H]1O[C@@](C#N)(c2ccc3c(N)ncnn23)[C@H](O)[C@@H]1O)Oc1ccc(C(C)(C)C)cc1)C(=O)OC1CCC1` (single isomer, unassigned) [Example 31a], the EC50 in assay [1] (setting [6]) was 6.33 nM; in assay [2] (setting [7]) it was 29.2 nM; in the assay with SARS-CoV-2 (setting [8]), 92.3 nM.
In the case of `CCC(=O)O[C@H]1[C@@H](OC(=O)CC)[C@](C#N)(c2ccc3c(N)ncnn23)O[C@@H]1COP(=O)(N[C@@H](C)C(=O)OC1CCC1)Oc1ccc(C(C)(C)C)cc1` (single isomer, unassigned) [Example 32a], the EC50 came out at 16.7 nM in assay [1] (setting [6]), 25.4 nM in assay [2] (setting [7]) and 157 nM in the assay on SARS-CoV-2.
`CCC(=O)O[C@H]1[C@@H](OC(=O)CC)[C@](C#N)(c2ccc3c(N)ncnn23)O[C@@H]1COP(=O)(N[C@@H](C)C(=O)OC1CCC1)Oc1ccc(C(C)(C)C)cc1` (single isomer, unassigned) [Example 32b]: the results for the EC50 (in assay [1] (setting [5]); in assay [2] (Table 3); in the assay on SARS-CoV-2) were 10.7 nM, 30 nM and 59.7 nM, respectively.
Regarding `CC(=O)O[C@H]1[C@@H](OC(C)=O)[C@](C#N)(c2ccc3c(N)ncnn23)O[C@@H]1COP(=O)(N[C@@H](C)C(=O)OC1CCC1)Oc1ccc(C(C)(C)C)cc1` (single isomer, unassigned) [Example 33a], the EC50 in assay [1] (setting [6]) stood at 9.06 nM; in assay [2] (setting [7]), 22.7 nM; in the assay on SARS-CoV-2 (setting [8]), 134 nM.
Turning to `CC(=O)O[C@H]1[C@@H](OC(C)=O)[C@](C#N)(c2ccc3c(N)ncnn23)O[C@@H]1COP(=O)(N[C@@H](C)C(=O)OC1CCC1)Oc1ccc(C(C)(C)C)cc1` (single isomer, unassigned) [Example 33b], the EC50 in assay [1] (setting [5]) is 12.2 nM; in assay [2] (Table 3) it was 27.2 nM; in the assay with SARS-CoV-2, 231 nM.
`CCOC(=O)[C@H](C)NP(=O)(OC[C@H]1O[C@@](C#N)(c2ccc3c(N)ncnn23)[C@H](OC(C)=O)[C@@H]1OC(C)=O)Oc1ccc(C23CC(C2)C3)cc1` (single isomer, unassigned) [Example 42a]: the values for the EC50 (in assay [1] (setting [6]); in assay [2] (setting [7]); with SARS-CoV-2) were 9.56 nM, 68.3 nM and 121 nM, respectively.
`CCOC(=O)[C@H](C)NP(=O)(OC[C@H]1O[C@@](C#N)(c2ccc3c(N)ncnn23)[C@H](OC(C)=O)[C@@H]1OC(C)=O)Oc1ccc(C23CC(C2)C3)cc1` (single isomer, unassigned) [Example 42b]: the EC50 was 8 nM in assay [1] (setting [5]), 68.8 nM in assay [2] (Table 3) and 51.3 nM in the assay with SARS-CoV-2.
As for `CCC(=O)O[C@H]1[C@@H](OC(=O)CC)[C@](C#N)(c2ccc3c(N)ncnn23)O[C@@H]1COP(=O)(N[C@@H](C)C(=O)OC1CC2(CCC2)C1)Oc1cccc2ccccc12` (single isomer, unassigned) [Example 87b], the EC50 in assay [1] (setting [6]) turned out to be 7.36 nM; in assay [2] (setting [7]), 44.9 nM; in assay [3], 8.3 nM; in the assay with SARS-CoV-2 it was 16.3 nM.
For the compound `CCC(=O)O[C@H]1[C@@H](OC(=O)CC)[C@](C#N)(c2ccc3c(N)ncnn23)O[C@@H]1COP(=O)(N[C@@H](C)C(=O)OCC(CC)CC)Oc1ccc(C(C)(C)C)c2ccccc12` (single isomer, unassigned) [Example 172a], in assay [4] (setting [9]), the concentration for a half-maximal effect (EC50) was determined as 750 nM.
As for `CCC(CC)COC(=O)[C@H](C)NP(=O)(OC[C@H]1O[C@@](C#N)(c2ccc3c(N)ncnn23)[C@H](OC(=O)C(C)C)[C@@H]1OC(=O)C(C)C)Oc1ccc(C(C)(C)C)c2ccccc12` (single isomer, unassigned) [Example 173b], in assay [4] (setting [10]), the EC50 was 765 nM.
The same measure, in the same setting: for `C[C@H](NP(=O)(OC[C@H]1O[C@@](C#N)(c2ccc3c(N)ncnn23)[C@H](O)[C@@H]1O)Oc1ccc(Cl)cc1)C(=O)OC1CCCCCCC1` (single isomer, unassigned) [Example 174a] the value was 7.09 nM.
With `C[C@H](NP(=O)(OC[C@H]1O[C@@](C#N)(c2ccc3c(N)ncnn23)[C@H](O)[C@@H]1O)Oc1ccc(Cl)cc1)C(=O)OC1CCCCCCC1` (single isomer, unassigned) [Example 174b], the EC50 in assay [4] (setting [10]) was 62.8 nM.
Turning to `C[C@H](NP(=O)(OC[C@H]1O[C@@](C#N)(c2ccc3c(N)ncnn23)[C@H](O)[C@@H]1O)Oc1ccc(C(C)(C)C)cc1)C(=O)OC1CC(C)(C)C1` (stereo partly drawn) [Example 93, 3,3-dimethylcyclobutyl ((((2R,3S,4R,5R)-5-(4-aminopyrrolo[2,1-f][1,2,4]triazin-7-yl)-5-cyano-3,4-dihydroxytetrahydrofuran-2-yl)methoxy)(4-(tert-butyl)phenoxy)phosphoryl)-L-alaninate], the EC50 in assay [1] (setting [6]) stood at 4.43 nM; in assay [2] (setting [7]), 67.6 nM; in the assay on SARS-CoV-2 (setting [8]) it was 123 nM.
Regarding `CC(C)C(=O)O[C@H]1[C@@H](OC(=O)C(C)C)[C@](C#N)(c2ccc3c(N)ncnn23)O[C@@H]1COP(=O)(N[C@@H](C)C(=O)OCC1CC1)Oc1ccc(C(C)(C)C)cc1` (stereo partly drawn) [Example 104a, (2R,3R,4R,5R)-2-(4-aminopyrrolo[2,1-f][1,2,4]triazin-7-yl)-5-((((4-(tert-butyl)phenoxy)(((S)-1-(cyclopropylmethoxy)-1-oxopropan-2-yl)amino)phosphoryl)oxy)methyl)-2-cyanotetrahydrofuran-3,4-diyl bis(2-methylpropanoate)], the EC50 came out at 10.8 nM in assay [1] (setting [6]), 39 nM in assay [2] (setting [7]) and 234 nM in the assay on SARS-CoV-2 (setting [8]).
With `CCC(C)(C)CCOC(=O)[C@H](C)NP(=O)(OC[C@H]1O[C@@](C#N)(c2ccc3c(N)ncnn23)[C@H](OC(C)=O)[C@@H]1OC(C)=O)Oc1ccccc1` (stereo partly drawn) [Example 106b, (2R,3R,4R,5R)-2-(4-aminopyrrolo[2,1-f][1,2,4]triazin-7-yl)-2-cyano-5-((((((S)-1-((3,3-dimethylpentyl)oxy)-1-oxopropan-2-yl)amino)(phenoxy)phosphoryl)oxy)methyl)tetrahydrofuran-3,4-diyl Diacetate], the values for the EC50 (in assay [1] (setting [6]); in assay [2] (Table 3); with SARS-CoV-2) were 12.2 nM, 34.2 nM and 97.8 nM, respectively.
Consider `COC(C)(C)COC(=O)[C@H](C)NP(=O)(OC[C@H]1O[C@@](C#N)(c2ccc3c(N)ncnn23)[C@H](OC(=O)C(C)C)[C@@H]1OC(=O)C(C)C)Oc1cccc2ccccc12` (stereo partly drawn) [Example 133, (2R,3R,4R,5R)-2-(4-aminopyrrolo[2,1-f][1,2,4]triazin-7-yl)-2-cyano-5-((((((S)-1-(2-methoxy-2-methylpropoxy)-1-oxopropan-2-yl)amino)(naphthalen-1-yloxy)phosphoryl)oxy)methyl)tetrahydrofuran-3,4-diyl bis(2-methylpropanoate)], for which the figures for the EC50 (in assay [1] (setting [6]); in assay [2] (setting [7]); in the assay on SARS-CoV-2 (setting [8])) were 13.8 nM, 33.6 nM and 36.9 nM, respectively.
As to `CCC(CC)COC(=O)[C@H](C)NP(=O)(OC[C@H]1O[C@@](C#N)(c2ccc3c(N)ncnn23)[C@H](O)[C@@H]1O)Oc1ccc(C(C)(C)C)c2ccccc12` (stereo partly drawn) [Example 170, 2-ethylbutyl ((((2R,3S,4R,5R)-5-(4-aminopyrrolo[2,1-f][1,2,4]triazin-7-yl)-5-cyano-3,4-dihydroxytetrahydrofuran-2-yl)methoxy)((4-(tert-butyl)naphthalen-1-yl)oxy)phosphoryl)-L-alaninate], in assay [4] (setting [9]), the EC50 was determined as 1010 nM.
With `CCC(CC)COC(=O)[C@H](C)NP(=O)(OC[C@H]1O[C@@](C#N)(c2ccc3c(N)ncnn23)[C@H](OC(=O)C(C)C)[C@@H]1OC(=O)C(C)C)Oc1ccc(C(C)(C)C)c2ccccc12` (stereo partly drawn) [Example 173, (2R,3R,4R,5R)-2-(4-aminopyrrolo[2,1-f][1,2,4]triazin-7-yl)-5-(((((4-(tert-butyl)naphthalen-1-yl)oxy)(((S)-1-(2-ethylbutoxy)-1-oxopropan-2-yl)amino)phosphoryl)oxy)methyl)-2-cyanotetrahydrofuran-3,4-diyl bis(2-methylpropanoate)], in assay [4] (setting [9]), the 50% effective concentration (EC50) stood at 798 nM.

The values above are taken from patent US12404289B2 (Gilead Sciences, Inc., priority 2020, dated 2025).
